# Experimental data taken from ChEMBL document CHEMBL5678810.
# Key:
# [1] = target: Peripheral plasma membrane protein CASK (Homo sapiens) (UniProt O14936); assay: Inhibition of T7 bacteriophage fused human CASK at 10 uM by KINOMEscan analysis relative to control
# [2] = target: STE20-like serine/threonine-protein kinase (Homo sapiens) (UniProt Q9H2G2); assay: Inhibition of T7 bacteriophage fused human SLK at 10 uM by KINOMEscan analysis relative to control
# [3] = target: T1, Dual specificity protein kinase TTK (Homo sapiens) (UniProt P33981); assay: Inhibition of T7 bacteriophage fused human TTK at 10 uM by KINOMEscan analysis relative to control
# T1 sequence (whole entry): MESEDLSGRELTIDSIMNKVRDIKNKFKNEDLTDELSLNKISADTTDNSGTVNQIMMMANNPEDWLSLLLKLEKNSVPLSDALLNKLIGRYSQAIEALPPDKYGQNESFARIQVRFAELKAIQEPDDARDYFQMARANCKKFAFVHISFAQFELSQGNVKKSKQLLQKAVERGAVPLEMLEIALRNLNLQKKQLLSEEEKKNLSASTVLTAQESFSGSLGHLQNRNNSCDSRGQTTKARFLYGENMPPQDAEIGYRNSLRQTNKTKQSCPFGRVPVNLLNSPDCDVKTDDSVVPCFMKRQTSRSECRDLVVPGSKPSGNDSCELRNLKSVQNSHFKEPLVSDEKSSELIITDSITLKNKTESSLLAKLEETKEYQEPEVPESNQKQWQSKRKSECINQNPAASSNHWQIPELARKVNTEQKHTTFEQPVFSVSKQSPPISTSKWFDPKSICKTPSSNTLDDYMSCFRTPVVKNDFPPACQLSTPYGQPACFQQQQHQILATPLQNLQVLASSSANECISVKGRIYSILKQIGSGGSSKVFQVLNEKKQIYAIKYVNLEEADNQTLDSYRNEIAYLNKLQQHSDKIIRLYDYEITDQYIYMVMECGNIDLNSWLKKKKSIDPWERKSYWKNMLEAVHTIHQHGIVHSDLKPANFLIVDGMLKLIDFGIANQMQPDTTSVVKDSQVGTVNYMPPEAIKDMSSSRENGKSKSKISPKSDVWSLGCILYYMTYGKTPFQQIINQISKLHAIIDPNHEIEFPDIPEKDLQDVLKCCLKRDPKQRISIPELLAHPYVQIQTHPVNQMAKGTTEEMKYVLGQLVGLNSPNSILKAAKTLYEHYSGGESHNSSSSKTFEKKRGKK
# [4] = target: Ribosomal protein S6 kinase alpha-2 (Homo sapiens) (UniProt Q15349); assay: Inhibition of T7 bacteriophage fused human C-terminal RSK3 Kinase domain-2 at 10 uM by KINOMEscan analysis relative to control
# [5] = target: Ribosomal protein S6 kinase alpha-6 (Homo sapiens) (UniProt Q9UK32); assay: Inhibition of T7 bacteriophage fused human C-terminal RSK4 Kinase domain-2 at 10 uM by KINOMEscan analysis relative to control
# [6] = target: Tyrosine-protein kinase Tec (Homo sapiens) (UniProt P42680); assay: Inhibition of T7 bacteriophage fused human TEC at 10 uM by KINOMEscan analysis relative to control
# [7] = target: Mitogen-activated protein kinase 7 (Homo sapiens, UniProt Q13164); assay: Inhibition of GST-tagged ERK5 (unknown origin) expressed in baculovirus expression system incubated for 90 mins in presence of ATP by PKLight ATP Detection Reagent based analysis
# [8] = target: Dual specificity mitogen-activated protein kinase kinase 5 (Homo sapiens, UniProt Q13163); assay: Inhibition of GST-tagged MEK5 (unknown origin) expressed in baculovirus expression system incubated for 90 mins in presence of ATP by PKLight ATP Detection Reagent based analysis
# Sequence of Dual specificity mitogen-activated protein kinase kinase 5 (Q13163 whole entry): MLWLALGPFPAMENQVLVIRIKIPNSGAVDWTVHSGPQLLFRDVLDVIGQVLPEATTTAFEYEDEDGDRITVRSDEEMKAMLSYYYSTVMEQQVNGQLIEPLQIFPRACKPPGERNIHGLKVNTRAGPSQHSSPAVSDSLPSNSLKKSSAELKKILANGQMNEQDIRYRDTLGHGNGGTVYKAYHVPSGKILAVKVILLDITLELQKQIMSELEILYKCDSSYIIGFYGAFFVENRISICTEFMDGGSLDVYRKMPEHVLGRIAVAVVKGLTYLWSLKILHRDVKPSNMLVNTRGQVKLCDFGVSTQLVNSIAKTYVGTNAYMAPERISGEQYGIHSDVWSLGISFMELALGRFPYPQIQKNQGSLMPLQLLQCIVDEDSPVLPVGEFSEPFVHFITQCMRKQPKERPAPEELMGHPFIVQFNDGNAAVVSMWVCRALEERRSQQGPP
# Sequence of Ribosomal protein S6 kinase alpha-2 (Homo sapiens) (Q15349 whole entry, the tested form may be a part): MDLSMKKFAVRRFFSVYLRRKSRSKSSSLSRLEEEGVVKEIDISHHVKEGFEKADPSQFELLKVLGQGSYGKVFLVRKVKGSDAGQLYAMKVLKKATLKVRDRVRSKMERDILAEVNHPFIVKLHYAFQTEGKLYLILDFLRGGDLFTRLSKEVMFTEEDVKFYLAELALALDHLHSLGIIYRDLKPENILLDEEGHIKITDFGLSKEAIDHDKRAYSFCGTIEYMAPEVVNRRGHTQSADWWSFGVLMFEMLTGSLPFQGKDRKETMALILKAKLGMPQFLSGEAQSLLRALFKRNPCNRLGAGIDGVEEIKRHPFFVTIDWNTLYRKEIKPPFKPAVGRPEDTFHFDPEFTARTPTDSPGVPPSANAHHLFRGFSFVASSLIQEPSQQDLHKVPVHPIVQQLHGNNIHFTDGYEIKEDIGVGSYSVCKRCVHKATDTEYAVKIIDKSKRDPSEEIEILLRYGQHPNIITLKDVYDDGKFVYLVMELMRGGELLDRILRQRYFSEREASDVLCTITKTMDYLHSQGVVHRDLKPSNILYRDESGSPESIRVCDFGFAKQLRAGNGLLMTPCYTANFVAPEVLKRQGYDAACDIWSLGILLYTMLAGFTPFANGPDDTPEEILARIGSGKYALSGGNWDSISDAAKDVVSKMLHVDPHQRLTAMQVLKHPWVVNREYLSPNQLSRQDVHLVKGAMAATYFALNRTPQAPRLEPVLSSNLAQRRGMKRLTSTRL
# Sequence of Ribosomal protein S6 kinase alpha-6 (Homo sapiens) (Q9UK32 whole entry, the tested form may be a part): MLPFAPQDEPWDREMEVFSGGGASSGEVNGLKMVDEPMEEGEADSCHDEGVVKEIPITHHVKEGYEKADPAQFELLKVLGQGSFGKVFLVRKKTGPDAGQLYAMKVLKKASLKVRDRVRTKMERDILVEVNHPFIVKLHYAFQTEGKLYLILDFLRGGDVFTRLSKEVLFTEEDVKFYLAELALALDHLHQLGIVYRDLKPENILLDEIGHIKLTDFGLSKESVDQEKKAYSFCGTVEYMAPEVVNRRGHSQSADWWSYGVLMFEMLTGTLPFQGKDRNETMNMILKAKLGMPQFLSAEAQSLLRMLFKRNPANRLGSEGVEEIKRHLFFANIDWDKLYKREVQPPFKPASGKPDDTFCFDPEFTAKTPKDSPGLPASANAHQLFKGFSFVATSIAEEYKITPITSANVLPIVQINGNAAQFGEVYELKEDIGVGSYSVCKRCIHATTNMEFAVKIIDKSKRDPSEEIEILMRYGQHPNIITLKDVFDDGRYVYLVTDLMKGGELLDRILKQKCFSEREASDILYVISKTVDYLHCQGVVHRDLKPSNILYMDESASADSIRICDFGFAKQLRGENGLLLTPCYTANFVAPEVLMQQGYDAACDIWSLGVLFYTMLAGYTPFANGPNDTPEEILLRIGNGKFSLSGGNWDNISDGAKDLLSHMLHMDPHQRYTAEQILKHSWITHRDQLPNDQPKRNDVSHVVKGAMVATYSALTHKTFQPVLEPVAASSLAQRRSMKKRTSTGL
# Sequence of Tyrosine-protein kinase Tec (Homo sapiens) (P42680 whole entry, looked up, the tested form may be a part): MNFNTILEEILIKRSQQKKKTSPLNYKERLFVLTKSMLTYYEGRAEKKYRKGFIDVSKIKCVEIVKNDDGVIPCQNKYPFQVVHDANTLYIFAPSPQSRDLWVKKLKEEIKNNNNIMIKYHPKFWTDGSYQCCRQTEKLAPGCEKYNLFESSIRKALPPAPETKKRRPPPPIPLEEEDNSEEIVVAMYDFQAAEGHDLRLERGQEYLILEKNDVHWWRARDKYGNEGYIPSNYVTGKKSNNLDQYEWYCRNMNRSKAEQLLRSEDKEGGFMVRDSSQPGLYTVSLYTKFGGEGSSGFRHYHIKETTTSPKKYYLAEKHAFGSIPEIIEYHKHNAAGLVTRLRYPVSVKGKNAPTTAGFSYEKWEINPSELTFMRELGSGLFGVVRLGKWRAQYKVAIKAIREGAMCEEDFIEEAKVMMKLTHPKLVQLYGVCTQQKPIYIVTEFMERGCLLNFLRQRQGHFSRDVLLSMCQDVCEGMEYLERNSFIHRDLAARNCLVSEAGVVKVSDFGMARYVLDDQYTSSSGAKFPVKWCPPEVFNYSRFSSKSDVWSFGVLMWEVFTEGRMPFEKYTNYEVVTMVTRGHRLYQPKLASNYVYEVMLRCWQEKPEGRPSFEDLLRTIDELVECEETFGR
# Sequence of STE20-like serine/threonine-protein kinase (Homo sapiens) (Q9H2G2 whole entry, looked up, the tested form may be a part): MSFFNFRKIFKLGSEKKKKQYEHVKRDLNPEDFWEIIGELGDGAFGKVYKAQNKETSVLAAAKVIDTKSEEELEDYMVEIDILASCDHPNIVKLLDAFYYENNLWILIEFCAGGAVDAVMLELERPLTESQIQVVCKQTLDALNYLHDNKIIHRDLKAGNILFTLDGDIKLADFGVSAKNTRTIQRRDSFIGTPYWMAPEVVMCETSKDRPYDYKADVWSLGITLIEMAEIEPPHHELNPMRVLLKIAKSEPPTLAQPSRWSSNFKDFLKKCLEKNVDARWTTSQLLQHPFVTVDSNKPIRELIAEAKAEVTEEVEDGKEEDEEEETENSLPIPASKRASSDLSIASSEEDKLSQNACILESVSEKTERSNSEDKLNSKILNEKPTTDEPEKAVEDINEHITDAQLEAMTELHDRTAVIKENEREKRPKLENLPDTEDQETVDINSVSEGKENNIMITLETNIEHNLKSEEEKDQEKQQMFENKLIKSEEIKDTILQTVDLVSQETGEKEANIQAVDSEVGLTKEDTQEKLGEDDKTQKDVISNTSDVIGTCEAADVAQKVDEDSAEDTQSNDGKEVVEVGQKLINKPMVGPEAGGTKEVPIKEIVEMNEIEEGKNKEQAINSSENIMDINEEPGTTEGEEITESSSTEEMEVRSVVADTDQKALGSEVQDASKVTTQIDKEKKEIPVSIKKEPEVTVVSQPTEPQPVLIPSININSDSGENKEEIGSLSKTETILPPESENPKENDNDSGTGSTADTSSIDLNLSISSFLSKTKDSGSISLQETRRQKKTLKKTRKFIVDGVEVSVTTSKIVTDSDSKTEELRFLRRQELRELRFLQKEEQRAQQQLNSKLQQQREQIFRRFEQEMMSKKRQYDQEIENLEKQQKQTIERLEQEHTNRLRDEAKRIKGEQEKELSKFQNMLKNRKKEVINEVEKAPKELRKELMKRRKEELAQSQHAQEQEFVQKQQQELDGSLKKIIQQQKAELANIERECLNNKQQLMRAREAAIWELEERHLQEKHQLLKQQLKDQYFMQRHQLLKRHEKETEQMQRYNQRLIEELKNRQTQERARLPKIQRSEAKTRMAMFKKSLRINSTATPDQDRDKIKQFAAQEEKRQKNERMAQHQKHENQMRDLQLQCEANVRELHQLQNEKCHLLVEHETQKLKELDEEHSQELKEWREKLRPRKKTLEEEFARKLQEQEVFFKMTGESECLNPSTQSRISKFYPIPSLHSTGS
# Sequence of Mitogen-activated protein kinase 7 (Q13164 whole entry): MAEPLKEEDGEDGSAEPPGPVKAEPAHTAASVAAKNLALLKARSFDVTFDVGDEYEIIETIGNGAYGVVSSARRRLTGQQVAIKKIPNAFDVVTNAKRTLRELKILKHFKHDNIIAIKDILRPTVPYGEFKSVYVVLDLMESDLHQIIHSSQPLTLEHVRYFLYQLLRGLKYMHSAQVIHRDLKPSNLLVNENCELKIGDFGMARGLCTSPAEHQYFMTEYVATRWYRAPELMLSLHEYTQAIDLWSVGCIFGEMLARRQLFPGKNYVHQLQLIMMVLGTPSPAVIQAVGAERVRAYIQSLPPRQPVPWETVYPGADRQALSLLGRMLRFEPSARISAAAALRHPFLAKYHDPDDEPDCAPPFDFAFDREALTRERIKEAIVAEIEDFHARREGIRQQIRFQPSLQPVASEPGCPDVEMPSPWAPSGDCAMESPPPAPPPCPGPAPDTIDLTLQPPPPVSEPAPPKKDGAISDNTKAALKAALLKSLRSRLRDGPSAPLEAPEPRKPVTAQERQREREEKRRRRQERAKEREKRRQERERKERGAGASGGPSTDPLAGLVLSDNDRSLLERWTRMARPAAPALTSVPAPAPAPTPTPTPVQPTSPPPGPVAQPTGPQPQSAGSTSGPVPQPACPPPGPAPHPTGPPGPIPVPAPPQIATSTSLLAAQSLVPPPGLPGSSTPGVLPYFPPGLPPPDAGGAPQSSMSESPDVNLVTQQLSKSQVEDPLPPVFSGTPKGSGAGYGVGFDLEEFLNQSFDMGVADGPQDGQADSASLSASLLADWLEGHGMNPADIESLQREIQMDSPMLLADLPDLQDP
IC50 [7] [nM],IC50 [8] [nM],SMILES,inhibition [1] [%],inhibition [2] [%],inhibition [3] [%],inhibition [4] [%],inhibition [5] [%],inhibition [6] [%]
,,COc1cc(C(=O)N2CCC(N3CCN(C)CC3)CC2)ccc1Nc1ncc2c(n1)N1CCc3cccc(c31)C(=O)N2C,100,49,46,13,5.2,100
810,4.3,CN(C)Cc1cccc(N/C(=C2\C(=O)Nc3cc(C(N)=O)ccc32)c2ccccc2)c1,,,,,,
